Results published in patent publication US9707234B2, “Spirocyclic hetercycle compounds useful as HIV integrase inhibitors” (MERCK SHARP & DOHME CORP., priority 2013, dated 2017).

system: HIV-1 (H9IIIB or NL4-3 virus) replication in MT4-GFP cells; experiment: microbe, parasite or virus in culture; type: cell-based; conditions: Human immunodeficiency virus 1, NL43, MT4-GFP cells infected with HIV-1; 10% normal human serum; inhibition of reproductive ratio R0, 48-72 h post-infection; read-out: ViKinG IP (nM) with 10% NHS

**Q.** With `CCN1C(=O)c2c(O)c(=O)c(C(=O)NCc3ccc(F)cc3F)cn2N(C)C12CCOC2` (single isomer, unassigned) [Compound 119] as the molecule, how does the IC50 read?
**A.** The IC50 was 11 nM.

**Q.** `COCCN1C(=O)c2c(O)c(=O)c(C(=O)NCc3ccc(F)cc3F)cn2N(C)C12CCOC2` (single isomer, unassigned) [Compound 121] was tested. Which IC50 did it give?
**A.** The IC50 was 39 nM.

same assay, conditions: Human immunodeficiency virus 1, NL43, MT4-GFP cells infected with HIV-1; 100% normal human serum; inhibition of reproductive ratio R0, 48-72 h post-infection; read-out: ViKinG IP (nM) with 100% NHS

**Q.** For `CCN1C(=O)c2c(O)c(=O)c(C(=O)NCc3ccc(F)cc3F)cn2N(C)C12CCOC2` (single isomer, unassigned) [Compound 119], which IC50 is on record?
**A.** The IC50 was 163 nM.

**Q.** How did the IC50 turn out when `CCOCCN1C(=O)c2c(O)c(=O)c(C(=O)NCc3ccc(F)cc3F)cn2N(C)C12CCOC2` (single isomer, unassigned) [Compound 125] was run?
**A.** Its IC50 is 257 nM.

**Q.** For `CN1C(=O)c2c(O)c(=O)c(C(=O)NCc3cccc(Cl)c3F)cn2N(C)C12COCC2(C)C` (single isomer, unassigned) [Compound 127], which IC50 is on record?
**A.** Its IC50 is 134 nM.

same assay, conditions: Human immunodeficiency virus 1, NL43, MT4-GFP cells infected with HIV-1; serum free conditions (0% NHS); inhibition of reproductive ratio R0, 48-72 h post-infection; read-out: ViKinG IP (nM) with 0% NHS

**Q.** For `CCN1C(=O)c2c(O)c(=O)c(C(=O)NCc3ccc(F)cc3F)cn2N(C)C12CCOC2` (single isomer, unassigned) [Compound 119], which IC50 is on record?
**A.** The IC50 was 1.2 nM.

**Q.** `COCCN1C(=O)c2c(O)c(=O)c(C(=O)NCc3ccc(F)cc3F)cn2N(C)C12CCOC2` (single isomer, unassigned) [Compound 121] was tested. Which IC50 did it give?
**A.** Its IC50 is 1.8 nM.

**Q.** For `COCCCN1C(=O)c2c(O)c(=O)c(C(=O)NCc3ccc(F)cc3F)cn2N(C)C12CCOC2` (single isomer, unassigned) [Compound 123], which IC50 is on record?
**A.** The IC50 was 1.2 nM.

**Q.** `CCOCCN1C(=O)c2c(O)c(=O)c(C(=O)NCc3ccc(F)cc3F)cn2N(C)C12CCOC2` (single isomer, unassigned) [Compound 125] was tested. Which IC50 did it give?
**A.** Its IC50 is 0.8 nM.

**Q.** How did the IC50 turn out when `CN1C(=O)c2c(O)c(=O)c(C(=O)NCc3cccc(Cl)c3F)cn2N(C)C12COCC2(C)C` (single isomer, unassigned) [Compound 127] was run?
**A.** The IC50 was 1 nM.

**Q.** Which IC50 does the source give for `CC1OCCC12N(C)C(=O)c1c(O)c(=O)c(C(=O)NCc3ccc(F)cc3F)cn1N2C` (single isomer, unassigned) [Compound 131] here?
**A.** The IC50 was 0.8 nM.

**Q.** `CC1OCCC12N(C)C(=O)c1c(O)c(=O)c(C(=O)NCc3cccc(Cl)c3F)cn1N2C` (single isomer, unassigned) [Compound 135] was tested. Which IC50 did it give?
**A.** The IC50 was 0.9 nM.

same assay, conditions: MT4-GFP cells infected with HIV-1; 10% normal human serum; inhibition of reproductive ratio R0, 48-72 h post-infection; read-out: ViKinG IP (nM) with 10% NHS

**Q.** `COCCCN1C(=O)c2c(O)c(=O)c(C(=O)NCc3ccc(F)cc3F)cn2N(C)C12CCOC2` (single isomer, unassigned) [Compound 123] was tested. Which IC50 did it give?
**A.** Its IC50 is 9 nM.

**Q.** With `COCCCN1C(=O)c2c(O)c(=O)c(C(=O)NCc3ccc(F)cc3F)cn2N(C)C12CCOC2` (single isomer, unassigned) [Compound 124] as the molecule, how does the IC50 read?
**A.** The IC50 was 22 nM.

same assay, conditions: MT4-GFP cells infected with HIV-1; 100% normal human serum; inhibition of reproductive ratio R0, 48-72 h post-infection; read-out: ViKinG IP (nM) with 100% NHS

**Q.** With `CN1C(=O)c2c(O)c(=O)c(C(=O)NCc3ccc(F)c(Cl)c3F)cn2N(C)C12CCOC2` (single isomer, unassigned) [Compound 118] as the molecule, how does the IC50 read?
**A.** Its IC50 is 101 nM.

**Q.** With `CCN1C(=O)c2c(O)c(=O)c(C(=O)NCc3ccc(F)cc3F)cn2N(C)C12CCOC2` (single isomer, unassigned) [Compound 120] as the molecule, how does the IC50 read?
**A.** The IC50 was 266 nM.

**Q.** `COCCN1C(=O)c2c(O)c(=O)c(C(=O)NCc3ccc(F)cc3F)cn2N(C)C12CCOC2` (single isomer, unassigned) [Compound 121] was tested. Which IC50 did it give?
**A.** Its IC50 is 575 nM.

**Q.** `COCCN1C(=O)c2c(O)c(=O)c(C(=O)NCc3ccc(F)cc3F)cn2N(C)C12CCOC2` (single isomer, unassigned) [Compound 122] was tested. Which IC50 did it give?
**A.** Its IC50 is 1990 nM.

**Q.** Which IC50 does the source give for `COCCCN1C(=O)c2c(O)c(=O)c(C(=O)NCc3ccc(F)cc3F)cn2N(C)C12CCOC2` (single isomer, unassigned) [Compound 123] here?
**A.** The IC50 was 117 nM.

**Q.** With `COCCCN1C(=O)c2c(O)c(=O)c(C(=O)NCc3ccc(F)cc3F)cn2N(C)C12CCOC2` (single isomer, unassigned) [Compound 124] as the molecule, how does the IC50 read?
**A.** Its IC50 is 309 nM.

**Q.** How did the IC50 turn out when `CCOCCN1C(=O)c2c(O)c(=O)c(C(=O)NCc3ccc(F)cc3F)cn2N(C)C12CCOC2` (single isomer, unassigned) [Compound 126] was run?
**A.** The IC50 was 455 nM.

**Q.** Which IC50 does the source give for `CN1C(=O)c2c(O)c(=O)c(C(=O)NCc3cccc(Cl)c3F)cn2N(C)C12COCC2(C)C` (single isomer, unassigned) [Compound 128] here?
**A.** The IC50 was 131 nM.

**Q.** For `CN1C(=O)c2c(O)c(=O)c(C(=O)NCc3ccc(F)cc3F)cn2N(C)C12COCC2(C)C` (single isomer, unassigned) [Compound 129], which IC50 is on record?
**A.** Its IC50 is 73 nM.

**Q.** Which IC50 does the source give for `CN1C(=O)c2c(O)c(=O)c(C(=O)NCc3ccc(F)cc3F)cn2N(C)C12COCC2(C)C` (single isomer, unassigned) [Compound 130] here?
**A.** The IC50 was 257 nM.

**Q.** With `CC1OCCC12N(C)C(=O)c1c(O)c(=O)c(C(=O)NCc3ccc(F)cc3F)cn1N2C` (single isomer, unassigned) [Compound 131] as the molecule, how does the IC50 read?
**A.** The IC50 was 114 nM.

**Q.** With `CC1OCCC12N(C)C(=O)c1c(O)c(=O)c(C(=O)NCc3ccc(F)cc3F)cn1N2C` (single isomer, unassigned) [Compound 132] as the molecule, how does the IC50 read?
**A.** The IC50 was 77 nM.

**Q.** Which IC50 does the source give for `CC1OCCC12N(C)C(=O)c1c(O)c(=O)c(C(=O)NCc3ccc(F)cc3F)cn1N2C` (single isomer, unassigned) [Compound 133] here?
**A.** Its IC50 is 55 nM.

**Q.** For `CC1OCCC12N(C)C(=O)c1c(O)c(=O)c(C(=O)NCc3ccc(F)cc3F)cn1N2C` (single isomer, unassigned) [Compound 134], which IC50 is on record?
**A.** The IC50 was 65 nM.

**Q.** `CC1OCCC12N(C)C(=O)c1c(O)c(=O)c(C(=O)NCc3cccc(Cl)c3F)cn1N2C` (single isomer, unassigned) [Compound 135] was tested. Which IC50 did it give?
**A.** Its IC50 is 486 nM.

**Q.** Which IC50 does the source give for `CC1OCCC12N(C)C(=O)c1c(O)c(=O)c(C(=O)NCc3cccc(Cl)c3F)cn1N2C` (single isomer, unassigned) [Compound 136] here?
**A.** Its IC50 is 83 nM.

**Q.** Which IC50 does the source give for `CC1OCCC12N(C)C(=O)c1c(O)c(=O)c(C(=O)NCc3cccc(Cl)c3F)cn1N2C` (single isomer, unassigned) [Compound 137] here?
**A.** The IC50 was 64 nM.

same assay, conditions: MT4-GFP cells infected with HIV-1; serum free conditions (0% NHS); inhibition of reproductive ratio R0, 48-72 h post-infection; read-out: ViKinG IP (nM) with 0% NHS

**Q.** For `CCN1C(=O)c2c(O)c(=O)c(C(=O)NCc3ccc(F)cc3F)cn2N(C)C12CCOC2` (single isomer, unassigned) [Compound 120], which IC50 is on record?
**A.** Its IC50 is 2.1 nM.

**Q.** Which IC50 does the source give for `COCCN1C(=O)c2c(O)c(=O)c(C(=O)NCc3ccc(F)cc3F)cn2N(C)C12CCOC2` (single isomer, unassigned) [Compound 122] here?
**A.** Its IC50 is 2.4 nM.

**Q.** With `COCCCN1C(=O)c2c(O)c(=O)c(C(=O)NCc3ccc(F)cc3F)cn2N(C)C12CCOC2` (single isomer, unassigned) [Compound 124] as the molecule, how does the IC50 read?
**A.** The IC50 was 1.8 nM.

**Q.** With `CCOCCN1C(=O)c2c(O)c(=O)c(C(=O)NCc3ccc(F)cc3F)cn2N(C)C12CCOC2` (single isomer, unassigned) [Compound 126] as the molecule, how does the IC50 read?
**A.** The IC50 was 1.3 nM.

**Q.** `CN1C(=O)c2c(O)c(=O)c(C(=O)NCc3cccc(Cl)c3F)cn2N(C)C12COCC2(C)C` (single isomer, unassigned) [Compound 128] was tested. Which IC50 did it give?
**A.** The IC50 was 0.7 nM.

**Q.** Which IC50 does the source give for `CN1C(=O)c2c(O)c(=O)c(C(=O)NCc3ccc(F)cc3F)cn2N(C)C12COCC2(C)C` (single isomer, unassigned) [Compound 129] here?
**A.** The IC50 was 0.6 nM.

**Q.** How did the IC50 turn out when `CN1C(=O)c2c(O)c(=O)c(C(=O)NCc3ccc(F)cc3F)cn2N(C)C12COCC2(C)C` (single isomer, unassigned) [Compound 130] was run?
**A.** The IC50 was 2.3 nM.

**Q.** How did the IC50 turn out when `CC1OCCC12N(C)C(=O)c1c(O)c(=O)c(C(=O)NCc3ccc(F)cc3F)cn1N2C` (single isomer, unassigned) [Compound 134] was run?
**A.** Its IC50 is 0.9 nM.

**Q.** `CC1OCCC12N(C)C(=O)c1c(O)c(=O)c(C(=O)NCc3cccc(Cl)c3F)cn1N2C` (single isomer, unassigned) [Compound 137] was tested. Which IC50 did it give?
**A.** The IC50 was 0.7 nM.
